Assays:
mouse TRPV1 Y512A mutant = mouse TRPV1 Y512A mutant (Mus musculus, UniProt Q704Y3, Y512A); type: cell-based; details: saturating concentration for the wildtype channel; whole-cell recording
mouse TRPV1 (wildtype) [1] = target: T1, mouse TRPV1 (wildtype) (Mus musculus, UniProt Q704Y3); details: WT channel; cited from earlier work
mouse TRPV1 E571A mutant = mouse TRPV1 E571A mutant (Mus musculus, UniProt Q704Y3, E571A); test: Whole-cell patch-clamp of TRPV1 E571A mutant; type: cell-based; details: whole-cell recording
mouse TRPV1 T551V mutant = mouse TRPV1 T551V mutant (Mus musculus, UniProt Q704Y3, T551V); test: cell-based; type: cell-based
mouse TRPV1 (wildtype) [2] = target: T1, mouse TRPV1 (wildtype); test: Whole-cell patch-clamp of wild-type TRPV1 in HEK293 cells; type: cell-based

Sequence of mouse TRPV1 E571A mutant (Q704Y3 whole entry E571A): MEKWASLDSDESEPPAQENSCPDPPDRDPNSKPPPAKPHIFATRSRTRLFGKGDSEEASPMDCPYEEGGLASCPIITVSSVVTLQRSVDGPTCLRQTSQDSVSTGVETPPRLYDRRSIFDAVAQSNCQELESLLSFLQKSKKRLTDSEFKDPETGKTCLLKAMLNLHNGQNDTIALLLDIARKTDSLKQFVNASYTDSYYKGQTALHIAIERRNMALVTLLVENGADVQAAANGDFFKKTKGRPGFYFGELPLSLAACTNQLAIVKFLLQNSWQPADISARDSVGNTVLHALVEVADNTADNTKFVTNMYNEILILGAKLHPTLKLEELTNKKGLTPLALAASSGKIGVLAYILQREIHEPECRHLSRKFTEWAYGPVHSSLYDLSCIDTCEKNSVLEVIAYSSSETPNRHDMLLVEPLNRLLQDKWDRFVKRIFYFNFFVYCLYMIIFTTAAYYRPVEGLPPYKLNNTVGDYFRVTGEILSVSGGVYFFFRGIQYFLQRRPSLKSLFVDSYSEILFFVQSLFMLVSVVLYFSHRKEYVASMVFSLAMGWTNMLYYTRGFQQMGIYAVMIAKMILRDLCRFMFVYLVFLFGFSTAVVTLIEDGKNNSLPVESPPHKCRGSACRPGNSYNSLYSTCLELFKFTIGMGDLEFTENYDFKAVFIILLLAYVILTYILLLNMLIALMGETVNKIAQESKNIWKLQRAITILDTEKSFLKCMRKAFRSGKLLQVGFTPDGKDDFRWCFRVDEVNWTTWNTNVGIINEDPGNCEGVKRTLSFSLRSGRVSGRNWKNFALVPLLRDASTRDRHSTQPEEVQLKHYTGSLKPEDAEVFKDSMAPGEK
T1 sequence (Q704Y3 whole entry): as the sequence (Q704Y3 whole entry E571A) above, with A571E counted along it
Sequence of mouse TRPV1 T551V mutant (Q704Y3 whole entry T551V): as the sequence (Q704Y3 whole entry E571A) above, with T551V, A571E counted along it
Sequence of mouse TRPV1 Y512A mutant (Q704Y3 whole entry Y512A): as the sequence (Q704Y3 whole entry E571A) above, with Y512A, A571E counted along it

Row | Compound | activation of the Y512A mutant (mouse TRPV1 Y512A mutant) | maximum open probability (Po_max) (mouse TRPV1 (wildtype) [1]) [%] | activation of the E571A mutant (mouse TRPV1 E571A mutant) | EC50 (mouse TRPV1 T551V mutant) [nM] | EC50 (mouse TRPV1 (wildtype) [2]) [nM] | shift of activation to higher concentration, T551V versus wildtype (mouse TRPV1 T551V mutant)
1 | NCCOB(c1ccccc1)c1ccccc1 [2-APB, 2-aminoethyl diphenylborinate] | largely activated | ~100 | – | – | – | –
2 | CCCCC/C=C\C/C=C\C/C=C\C/C=C\CCCC(=O)NCCO [AEA, anandamide] | – | – | barely opened | 4880 ± 780 | 6020 ± 1230 | –
3 | COc1cc(CNC(=O)CCCC/C=C/C(C)C)ccc1O [capsaicin] | activated | – | can still activate | – | 146 ± 39 | about 10 fold
4 | CCCCCCCC/C=C\CCCCCCCC(=O)NCCc1ccc(O)c(O)c1 [OLDA, N-oleoyldopamine] | – | – | barely opened | 540 ± 140 | 290 ± 80 | –

Source: article PMC8387766 (The Journal of Biological Chemistry, 2021)
